The source of these data is patent US7932262B2 (Novartis AG, priority 2006, dated 2011).

The term IC50 denotes the concentration that inhibits the measured activity by half.

Read-outs that look alike come from different tables or passages of the source.

Assay [1] concerns the target T1, PDK1 kinase (Homo sapiens, UniProt O15530).
T1 sequence (O15530 1-556): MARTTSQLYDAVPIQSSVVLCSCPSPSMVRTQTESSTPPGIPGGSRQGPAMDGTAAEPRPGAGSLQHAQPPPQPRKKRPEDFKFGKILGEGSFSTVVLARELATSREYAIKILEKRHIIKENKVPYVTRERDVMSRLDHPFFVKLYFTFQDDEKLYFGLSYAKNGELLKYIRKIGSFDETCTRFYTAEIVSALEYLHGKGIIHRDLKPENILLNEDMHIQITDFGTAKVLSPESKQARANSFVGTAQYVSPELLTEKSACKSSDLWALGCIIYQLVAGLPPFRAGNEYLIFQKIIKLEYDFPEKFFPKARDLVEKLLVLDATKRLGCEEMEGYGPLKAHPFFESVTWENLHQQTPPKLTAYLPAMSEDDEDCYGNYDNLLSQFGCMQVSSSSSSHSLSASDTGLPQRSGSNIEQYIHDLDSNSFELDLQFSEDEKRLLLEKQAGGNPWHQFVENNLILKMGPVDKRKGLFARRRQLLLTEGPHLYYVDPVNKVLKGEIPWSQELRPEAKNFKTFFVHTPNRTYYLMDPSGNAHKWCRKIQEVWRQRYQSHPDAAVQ
The assay can be described thus: PDK1 Kinase Alpha Screen Assay. Type of assay: biochemical. To be noted: read-out: PDK1 IC50. In outline: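 PDK1 phosphorylated 50 nM biotinylated PDK1-4 peptide with 10 uM ATP in Tris pH 7.5, 10 mM MgCl2, 2 mM DTT, 2.5% DMSO for 3-18 hours. After EDTA stop, phosphopeptide was detected by AlphaScreen using phospho-(Ser/Thr) PKA substrate antibody with protein A/streptavidin beads, read after overnight incubation.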

The test system of assay [2] is A2780 cells. The assay can be described thus: Cell Proliferation Assay (Cell Titer Glo), A2780. Conditions: Homo sapiens, read-out: CPEC50 A2780. Type of assay: cell-based. In outline:
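Cells seeded at 1000/well, allowed to adhere 3-5 h, then exposed to DMSO-dissolved compounds for 3 days at 37° C., 5% CO2. Medium replaced before Cell Titer Glo addition; luminescence read after 10 min.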

Assay [3] deals with PC-3 cells. Put plainly: Cell Proliferation Assay (Cell Titer Glo), PC-3 cell line. It is filed as cell-based. Conditions: Homo sapiens. In outline: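 PC-3 cells, 1000 cells/well, left to adhere 3-5 h, then exposed for 3 days at 37° C to compounds as 1:3 serial dilutions from 500× DMSO stocks diluted in growth medium. Medium then replaced with fresh medium and viability read by Cell Titer Glo luminescence.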
(In general: Cellular ATP, detected with luciferase, serves as a proxy for viable cell number.)

The mark [4] stands for this setting: Cell Proliferation Assay, A2780.
Setting [5] is: PC-3, Cell Proliferation Assay, PC3, read-out: CPEC50 PC3.
Where [6] appears, read: cell proliferation, A2780 cells.

As for `CC(C)N1CCC(Oc2ccc3cnc(Nc4ccc(S(=O)(=O)N5CCOCC5)cc4)nc3c2)CC1` [Compound 54, [7-(1-Isopropyl-piperidin-4-yloxy)-quinazolin-2-yl]-[4-(morpholine-4-sulfonyl)-phenyl]-amine], the IC50 in assay [1] was < 5 µM. Also, the EC50 in assay [2] (72 h, A2780 cells, 3 days incubation) is < 5 µM; in assay [3] (PC-3, 72 h, PC-3 cells, 3 days incubation, read-out: CP EC50 PC3), < 5 µM.
Consider `Cc1ccc(OC2CCNCC2)c2nc(Nc3ccc(C(=O)NC4CC4)cc3)ncc12` [Compound 364, N-cyclopropyl-4-(5-methyl-8-(piperidin-4-yloxy)quinazolin-2-ylamino)benzamide], for which, in assay [1] (PDK1 Kinase Alpha Screen Assay), the IC50 was < 5 µM. The EC50 in assay [2] (setting [4]) and in assay [3] (setting [5]) was < 5 µM in each case.
For the molecule `NS(=O)(=O)c1ccc(Nc2ncc3cccc(Oc4ccccc4)c3n2)cc1` [Compound 405, 4-(8-phenoxyquinazolin-2-ylamino)benzenesulfonamide], the IC50 in assay [1] (PDK1 Kinase Alpha Screen Assay) is < 5 µM. For the same molecule, the EC50 in assay [2] (setting [4]) and in assay [3] (setting [5]) was < 5 µM throughout.
In the case of `NS(=O)(=O)c1ccc(Nc2ncc3cccc(OCC4CCNCC4)c3n2)cc1` [Compound 509, 4-(8-(piperidin-4-ylmethoxy)quinazolin-2-ylamino)benzenesulfonamide], the IC50 in assay [1] (PDK1 Kinase Alpha Screen Assay) was < 5 µM. The EC50 in assay [2] (setting [4]) and in assay [3] (setting [5]) was < 5 µM in each case.
Consider `CC(C)Oc1cccc2cnc(Nc3ccc(S(N)(=O)=O)cc3)nc12` [Compound 511, 4-(8-isopropoxyquinazolin-2-ylamino)benzenesulfonamide], for which the IC50 in assay [1] (PDK1 Kinase Alpha Screen Assay) was < 5 µM. The EC50 in assay [2] (setting [4]) and in assay [3] (setting [5]) was < 5 µM each time.
Take `NS(=O)(=O)c1ccc(Nc2ncc3cccc(OC4CCCC4)c3n2)cc1` [Compound 512, 4-(8-(cyclopentyloxy)quinazolin-2-ylamino)benzenesulfonamide]: in assay [1] (PDK1 Kinase Alpha Screen Assay), the half-inhibitory concentration (IC50) was < 5 µM. In addition, the EC50 in assay [2] (setting [4]) and in assay [3] (setting [5]) was < 5 µM each time.
As to `CC(C)N1CCC(COc2cccc3cnc(Nc4ccc(S(N)(=O)=O)cc4)nc23)CC1` [Compound 519, 4-(8-((1-isopropylpiperidin-4-yl)methoxy)quinazolin-2-ylamino)benzenesulfonamide], in assay [1] (PDK1 Kinase Alpha Screen Assay), the IC50 was < 5 µM. The EC50 in assay [2] (setting [4]) and in assay [3] (setting [5]) was < 5 µM throughout.
On to `CC(C)Oc1cccc2cnc(Nc3ccc(C(N)=O)cn3)nc12` [Compound 520, 6-(8-isopropoxyquinazolin-2-ylamino)nicotinamide], for which the results for the EC50 in assay [2] (setting [4]) and in assay [3] (setting [5]) were 5 to 10 µM and < 5 µM, respectively.
`CC(C)Oc1cccc2cnc(Nc3ccccn3)nc12` [Compound 521, 8-isopropoxy-N-(pyridin-2-yl)quinazolin-2-amine]: the results for the EC50 in assay [2] (setting [4]) and in assay [3] (setting [5]) were 5 to 10 µM and < 5 µM, respectively.
Regarding `c1csc(-c2cc3cnc(Nc4ccc(N5CCOCC5)cc4)nc3cc2OC2CCNCC2)n1` [Compound 645, N-(4-morpholinophenyl)-7-(piperidin-4-yloxy)-6-(thiazol-2-yl)quinazolin-2-amine], in assay [1] (PDK1 Kinase Alpha Screen Assay), the IC50 was < 5 µM. Moreover, the EC50 in assay [2] (setting [4]) and in assay [3] (setting [5]) was < 5 µM in each case.
With `C#Cc1cc2cnc(Nc3ccc(N4CCOCC4)cc3)nc2cc1OC1CCNCC1` [Compound 646, 6-Ethynyl-N-(4-morpholinophenyl)-7-(piperidin-4-yloxy)quinazolin-2-amine], the IC50 in assay [1] (PDK1 Kinase Alpha Screen Assay) is < 5 µM. In addition, the EC50 in assay [2] (setting [4]) and in assay [3] (setting [5]) was < 5 µM each time.
Consider `NS(=O)(=O)c1ccc(Nc2ncc3cccc(CN4CCNC(=O)C4)c3n2)cc1` [Compound 896, 4-(8-((3-oxopiperazin-1-yl)methyl)quinazolin-2-ylamino)benzenesulfonamide], for which the IC50 in assay [1] (PDK1 Kinase Alpha Screen Assay) was < 5 µM. Also, in assay [2] (setting [6]), the EC50 was < 5 µM.
Consider `CC(C)NCc1cccc2cnc(Nc3ccc(S(N)(=O)=O)cc3)nc12` [Compound 897, 4-(8-((isopropylamino)methyl)quinazolin-2-ylamino)benzenesulfonamide], for which the IC50 in assay [1] (PDK1 Kinase Alpha Screen Assay) was < 5 µM. Also, the EC50 in assay [2] (setting [6]) is < 5 µM.
With `Cn1cc(-c2ccc3cnc(Nc4ccc(S(N)(=O)=O)cc4)nc3c2-c2cnn(C)c2)cn1` [Compound 898, 4-(7,8-bis(1-methyl-1H-pyrazol-4-yl)quinazolin-2-ylamino)benzenesulfonamide], in assay [1] (PDK1 Kinase Alpha Screen Assay), the IC50 was < 5 µM. Further, the EC50 in assay [2] (setting [6]) is < 5 µM.
Take `NS(=O)(=O)c1ccc(Nc2ncc3ccc(-c4cccnc4)c(-c4cccnc4)c3n2)cc1` [Compound 899, 4-(7,8-di(pyridin-3-yl)quinazolin-2-ylamino)benzenesulfonamide]: the IC50 in assay [1] (PDK1 Kinase Alpha Screen Assay) is < 5 µM. Besides, the EC50 in assay [2] (setting [6]) is < 5 µM.
`Nc1ccc(-c2ccc3cnc(Nc4ccc(S(N)(=O)=O)cc4)nc3c2-c2ccc(N)nc2)cn1` [Compound 900, 4-(7,8-bis(6-aminopyridin-3-yl)quinazolin-2-ylamino)benzenesulfonamide]: in assay [1] (PDK1 Kinase Alpha Screen Assay), the IC50 is < 5 µM. The EC50 in assay [2] (setting [6]) is 5 to 10 µM.
For the molecule `NS(=O)(=O)c1ccc(Nc2ncc3cccc(CNCc4ccccc4)c3n2)cc1` [Compound 901, 4-(8-((benzylamino)methyl)quinazolin-2-ylamino)benzenesulfonamide], the IC50 in assay [1] (PDK1 Kinase Alpha Screen Assay) was < 5 µM. Also, in assay [2] (setting [6]), the EC50 is < 5 µM.
Consider `NS(=O)(=O)c1ccc(Nc2ncc3cccc(CN4CCCC4)c3n2)cc1` [Compound 903, 4-(8-(pyrrolidin-1-ylmethyl)quinazolin-2-ylamino)benzenesulfonamide], for which the IC50 in assay [1] (PDK1 Kinase Alpha Screen Assay) is < 5 µM. Besides, the EC50 in assay [2] (setting [6]) is < 5 µM.
Turning to `NS(=O)(=O)c1ccc(Nc2ncc3ccc(-c4ccc(F)nc4)c(-c4ccc(F)nc4)c3n2)cc1` [Compound 912, 4-(7,8-bis(6-fluoropyridin-3-yl)quinazolin-2-ylamino)benzenesulfonamide], the IC50 in assay [1] (PDK1 Kinase Alpha Screen Assay) was < 5 µM. Further, the EC50 in assay [2] (setting [6]) is < 5 µM.
On to `CCN(CC)Cc1cccc2cnc(Nc3ccc(S(N)(=O)=O)cc3)nc12` [Compound 916, 4-(8-((diethylamino)methyl)quinazolin-2-ylamino)benzenesulfonamide], for which, in assay [1], the IC50 is < 5 µM. In addition, the EC50 in assay [2] (A2780 cells) was < 5 µM.
Consider `NS(=O)(=O)c1ccc(Nc2ncc3cccc(CNCc4cccnc4)c3n2)cc1` [Compound 917, 4-(8-((pyridin-3-ylmethylamino)methyl)quinazolin-2-ylamino)benzenesulfonamide], for which, in assay [1], the IC50 is < 5 µM. For the same molecule, in assay [2] (A2780 cells), the EC50 is < 5 µM.
On to `NS(=O)(=O)c1ccc(Nc2ncc3cccc(CNCCc4cnc[nH]4)c3n2)cc1` [Compound 918, 4-(8-((2-(1H-imidazol-5-yl)ethylamino)methyl)quinazolin-2-ylamino)benzenesulfonamide], for which the IC50 in assay [1] is < 5 µM. In addition, in assay [2] (A2780 cells), the EC50 lay in the range of 5 to 10 µM.
Regarding `NC(=O)C1CCN(Cc2cccc3cnc(Nc4ccc(S(N)(=O)=O)cc4)nc23)CC1` [Compound 919, 1-((2-(4-sulfamoylphenylamino)quinazolin-8-yl)methyl)piperidine-4-carboxamide], in assay [1], the IC50 is < 5 µM. The EC50 in assay [2] (A2780 cells) was in the range of 5 to 10 µM.
Take `NS(=O)(=O)c1ccc(Nc2ncc3cccc(CNC4CCOCC4)c3n2)cc1` [Compound 920]: the IC50 in assay [1] was < 5 µM. For the same molecule, the EC50 in assay [2] (A2780 cells) was < 5 µM.
Regarding `NS(=O)(=O)c1ccc(Nc2ncc3cccc(CNC4CCCCC4)c3n2)cc1` [Compound 921, 4-(8-((cyclohexylamino)methyl)quinazolin-2-ylamino)benzenesulfonamide], the IC50 in assay [1] was < 5 µM. Also, the EC50 in assay [2] (A2780 cells) was < 5 µM.
For the molecule `NS(=O)(=O)c1ccc(Nc2ncc3cccc(CNCC4CCCO4)c3n2)cc1` (centres unmarked) [Compound 922, 4-(8-(((tetrahydrofuran-2-yl)methylamino)methyl)quinazolin-2-ylamino)benzenesulfonamide], in assay [1], the IC50 was < 5 µM. Besides, in assay [2] (A2780 cells), the EC50 is < 5 µM.
Consider `NS(=O)(=O)c1ccc(Nc2ncc3cccc(CN4CCc5ccccc5C4)c3n2)cc1` [Compound 923, 4-(8-((3,4-dihydroisoquinolin-2(1H)-yl)methyl)quinazolin-2-ylamino)benzenesulfonamide], for which, in assay [1], the IC50 is < 5 µM. The EC50 in assay [2] (A2780 cells) is < 5 µM.
`CC(=O)N1CCN(Cc2cccc3cnc(Nc4ccc(S(N)(=O)=O)cc4)nc23)CC1` [Compound 924, 4-(8-((4-acetylpiperazin-1-yl)methyl)quinazolin-2-ylamino)benzenesulfonamide]: the IC50 in assay [1] was < 5 µM. Further, the EC50 in assay [2] (A2780 cells) is < 5 µM.
